Values of other authors, collected in publication PMC10979105, “A simple method to resolve rate constants when the binding mechanism obeys induced fit or conformational selection” (The Journal of Biological Chemistry, 2024).

System: thrombin
Set-up: method as in PMID 23467412
Details: thrombin versus zymogen prethrombin-2; cited from earlier work

CC1CNc2c(cccc2S(=O)(=O)N[C@@H](CCCNC(=N)N)C(=O)N2CC[C@@H](C)C[C@@H]2C(=O)O)C1 (stereo partly shown) [argatroban]
affinity for thrombin higher than for prethrombin-2: 200 fold
